Measured values published in patent US7745455B2 (priority 2005, dated 2010).
Where “and” joins values, the source holds several entries; their conditions need not be identical. Equal values may be shown once.

Columns and labels:
[1] = human, in vivo; cited from earlier work
[2] = Plasmatic 3TC levels in patients with or without ddC-boosted 3TC treatment; type: in vivo, human; conditions: individual HIV patients, one line per patient and date, 3TC with low dose ddC or without ddC
Method: It should be noted that for the plasma levels, the peak (post-dose) was at about 2 hours of the drug administration: this is not the case with intracellular triphosphate concentrations where the peaks might occur later than 2 hours post drug administration.

3TC-TP formation = conditions: in vitro; cited from earlier work
ddC phosphorylation = conditions: in vitro, identical concentration ratios of 10 to 100 μM; cited from earlier work
HIV [3] = type: in vivo; conditions: individual patients by date; 3TC lines = before ddC was started
HIV [4] = conditions: 300 mg instead of 150 mg; cited from earlier work
CD4+ = CD4+ count in treated patients (immunological data); type: in vivo, human; conditions: individual patients by date; 3TC lines = before ddC was started
HIV [5] = conditions: cited from earlier work
[6] = human, in vivo; cited from earlier work; remark: listed apart in the source
3TC phosphorylation = conditions: in vitro, at extremely high ddC concentrations (10 to 100 higher than those of 3TC); cited from earlier work

| Structure (SMILES) | 3TC-TP levels reported in the literature [1] | concentration at 2 h ([2]; human, in vivo, 3TC plasma levels 2 h post dose) | 3TC plasma levels 2 h post dose [2] | 3TC plasma levels Pre-dose [2] | extracellular concentration at which 3TC-TP formation is saturated (3TC-TP formation) | inhibition of ddC phosphorylation (ddC phosphorylation) | Viral load (HIV [3]) | effect of increased dose on 3TC-TP levels (HIV [4]) | CD4+ (CD4+) | concentration needed for antiretroviral activity (in vivo toxicity index) (HIV [5]) | toxic concentration (in vivo toxicity index) (HIV [5]) | plasma levels [6] | inhibition of 3TC phosphorylation (3TC phosphorylation) |
| --- | --- | --- | --- | --- | --- | --- | --- | --- | --- | --- | --- | --- | --- |
| Nc1ccn([C@@H]2CS[C@H](CO)O2)c(=O)n1 [3TC, 2′ deoxy-3′-thiacytidine] | 1-5 μmol/10^6 PBMC | 700 ng/mL | 779 ng/ml and 1 057 ng/ml | 143 ng/ml and 35 ng/ml (2×) | 10 µM | inhibited ddC phosphorylation in a concentration-dependent manner | 291 392 ^ and 1 344 ^ and 124 and 445 | did not significantly increased the 3TC-TP levels | 180 and 760 and 220 and 770 | – | – | – | – |
| Nc1ccn([C@H]2CC[C@@H](CO)O2)c(=O)n1 [ddC, 2′-3′-dideoxycytidine] | – | – | – | – | – | – | – | – | – | 0.1 µM | 0.2 µM | 500 to 1500 nM | did inhibit in vitro 3TC phosphorylation |
